Values after ≈ are worked out from the molar mass of the structure shown. Where two headings read alike, the source gives them in different places.
Legend:
[1] = cytotoxicity towards L929 host cells (Cell Titer 96); conditions: mouse, % Inhibition of host cell growth (values in parenthesis)
[2] = toxicity towards MDBKF5D2 host cells (MTS); conditions: bovine, mdbkf5d2 cells, Cytotoxicity (percent toxicity)
Tetrahymena pyriformis = test: in vitro growth inhibitory activity against the ciliate Tetrahymena pyriformis; type: cell-based, Tetrahymena pyriformis (ATCC strain 30005); conditions: read-out: EC50 Tetrahymena pyriformis
Leishmania major = test: in vitro growth inhibitory activity against L. major promastigotes; type: cell-based
From the text: 35, pp. 2198-2202 (1991).

Entamoeba histolytica = test: in vitro growth inhibitory activity against E. histolytica; type: cell-based
From the text: 35, pp. 2198-2202 (1991). Metronidazole was included as a standard in the test for comparative purposes.

[3] = cytotoxicity towards HFF host cells (Cell Titer 96); conditions: human, % Inhibition of host cell growth (values in parenthesis)
Giardia lamblia = test: in vitro growth inhibitory activity against Giardia lamblia; type: cell-based; conditions: Giardia duodenalis; concentration required to inhibit growth by 50%
Procedure: 35, pp. 2198-2202 (1991). EC50 values for test compounds, expressed in parts per million (ppm), were calculated from dose response curves and are presented in Table 4. As used herein, the terminology "EC50" means the concentration of test compound required to inhibit growth by 50% are compared to a control lacking the test compound. Metronidazole was included as a standard in the tests for comparative purposes.

Toxoplasma gondii [4] = test: growth inhibition of T. gondii in L929 host cells ([3H]-uracil incorporation); type: cell-based; conditions: Toxoplasma gondii
Toxoplasma gondii [5] = test: growth inhibition of T. gondii in HFF host cells ([3H]-uracil incorporation); type: cell-based; conditions: Toxoplasma gondii
[6] = L929, 24 h, L929 host cells, 0.5 μg/ml, 24 hours, read-out: % Inhibition
[7] = L929, 24 h, L929 host cells, 5.0 μg/ml, 24 hours, read-out: % Inhibition
[8] = L929, 48 h, L929 host cells, 0.5 μg/ml, 48 hours, read-out: % Inhibition
[9] = L929, 48 h, L929 host cells, 5.0 μg/ml, 48 hours, read-out: % Inhibition
[10] = L929, 72 h, L929 host cells, 0.5 μg/ml, 72 hours, read-out: % Inhibition
[11] = L929, 72 h, L929 host cells, 5.0 μg/ml, 72 hours, read-out: % Inhibition
[12] = 24 h, HFF host cells, 0.5 μg/ml, 24 hours, read-out: % Inhibition
[13] = 24 h, HFF host cells, 5.0 μg/ml, 24 hours, read-out: % Inhibition
[14] = 48 h, HFF host cells, 0.5 μg/ml, 48 hours, read-out: % Inhibition
[15] = 48 h, HFF host cells, 5.0 μg/ml, 48 hours, read-out: % Inhibition
[16] = 72 h, HFF host cells, 0.5 μg/ml, 72 hours, read-out: % Inhibition
[17] = 72 h, HFF host cells, 5.0 μg/ml, 72 hours, read-out: % Inhibition

Structure (SMILES): CCC(C)(NC(=O)c1cc(Cl)c(N)c(Cl)c1)C(=O)CCl (stereo not shown) [Compound 1]
- inhibition at 24 h ([1]; L929, 0.5 μg/ml): 1.5%
- inhibition at 48 h ([1]; L929, 0.5 μg/ml): 11.6%
- inhibition at 72 h ([1]; L929, 0.5 μg/ml): 31.3%
- inhibition at 24 h ([1]; L929, 5.0 μg/ml): 19.7%
- inhibition at 48 h ([1]; L929, 5.0 μg/ml): 61.8%
- inhibition at 72 h ([1]; L929, 5.0 μg/ml): 81.1%
- cytotoxicity at 48 h, 0.1 µM [2]: 0%
- cytotoxicity at 48 h, 1 µM [2]: 0%
- cytotoxicity at 48 h, 10 µM [2]: 19.9%
- cytotoxicity at 48 h, 100 µM [2]: 35.7%
- EC50 (Tetrahymena pyriformis; 24 hours, 25° C.): 0.02 µg/mL (≈ 0.0592 µM)
- EC50 (Leishmania major): 0.2 µg/mL (≈ 0.592 µM)
- EC50 (Entamoeba histolytica): 38 µg/mL (≈ 113 µM)
- inhibition at 24 h ([3]; 0.5 μg/ml): 1.6%
- inhibition at 48 h ([3]; 0.5 μg/ml): 0%
- inhibition at 72 h ([3]; 0.5 μg/ml): 1.4%
- inhibition at 24 h ([3]; 5.0 μg/ml): 14.7%
- inhibition at 48 h ([3]; 5.0 μg/ml): 13.5%
- inhibition at 72 h ([3]; 5.0 μg/ml): 47.6%
- EC50 (Giardia lamblia): 0.06 µg/mL (≈ 0.178 µM)
- inhibition at 0.5 µg/mL (Toxoplasma gondii [4]; [6]): 7.8%
- inhibition at 5 µg/mL (Toxoplasma gondii [4]; [7]): 10.8%
- inhibition at 0.5 µg/mL (Toxoplasma gondii [4]; [8]): 80.4%
- inhibition at 5 µg/mL (Toxoplasma gondii [4]; [9]): 75.5%
- inhibition at 0.5 µg/mL (Toxoplasma gondii [4]; [10]): 95.4%
- inhibition at 5 µg/mL (Toxoplasma gondii [4]; [11]): 78.2%
- inhibition at 0.5 µg/mL (Toxoplasma gondii [5]; [12]): 47.6%
- inhibition at 5 µg/mL (Toxoplasma gondii [5]; [13]): 88%
- inhibition at 0.5 µg/mL (Toxoplasma gondii [5]; [14]): 96.1%
- inhibition at 5 µg/mL (Toxoplasma gondii [5]; [15]): 99.3%
- inhibition at 0.5 µg/mL (Toxoplasma gondii [5]; [16]): 91.3%
- inhibition at 5 µg/mL (Toxoplasma gondii [5]; [17]): 99.2%

Structure (SMILES): CCC(C)(NC(=O)c1cc(Cl)c(F)c(Cl)c1)C(=O)CCl (stereo not shown) [Compound 9]
- inhibition at 24 h ([1]; L929, 0.5 μg/ml): 6.3%
- inhibition at 48 h ([1]; L929, 0.5 μg/ml): 0%
- inhibition at 72 h ([1]; L929, 0.5 μg/ml): 8.5%
- inhibition at 24 h ([1]; L929, 5.0 μg/ml): 20.2%
- inhibition at 48 h ([1]; L929, 5.0 μg/ml): 65.2%
- inhibition at 72 h ([1]; L929, 5.0 μg/ml): 90.4%
- cytotoxicity at 48 h, 0.1 µM [2]: 6.7%
- cytotoxicity at 48 h, 1 µM [2]: 0%
- cytotoxicity at 48 h, 10 µM [2]: 0%
- cytotoxicity at 48 h, 100 µM [2]: 81.4%
- EC50 (Tetrahymena pyriformis; 24 hours, 25° C.): 0.004 µg/mL (≈ 0.0117 µM)
- EC50 (Leishmania major): 0.1 µg/mL (≈ 0.294 µM)
- inhibition at 24 h ([3]; 0.5 μg/ml): 1.1%
- inhibition at 48 h ([3]; 0.5 μg/ml): 1.1%
- inhibition at 72 h ([3]; 0.5 μg/ml): 0%
- inhibition at 24 h ([3]; 5.0 μg/ml): 2.4%
- inhibition at 48 h ([3]; 5.0 μg/ml): 21.3%
- inhibition at 72 h ([3]; 5.0 μg/ml): 6.3%
- EC50 (Giardia lamblia): 0.03 µg/mL (≈ 0.0881 µM)
- inhibition at 0.5 µg/mL (Toxoplasma gondii [4]; [6]): 29%
- inhibition at 5 µg/mL (Toxoplasma gondii [4]; [7]): 28.2%
- inhibition at 0.5 µg/mL (Toxoplasma gondii [4]; [8]): 86.3%
- inhibition at 5 µg/mL (Toxoplasma gondii [4]; [9]): 77.3%
- inhibition at 0.5 µg/mL (Toxoplasma gondii [4]; [10]): 90.9%
- inhibition at 5 µg/mL (Toxoplasma gondii [4]; [11]): 95.6%
- inhibition at 0.5 µg/mL (Toxoplasma gondii [5]; [12]): 58.7%
- inhibition at 5 µg/mL (Toxoplasma gondii [5]; [13]): 74.3%
- inhibition at 0.5 µg/mL (Toxoplasma gondii [5]; [14]): 77.6%
- inhibition at 5 µg/mL (Toxoplasma gondii [5]; [15]): 97%
- inhibition at 0.5 µg/mL (Toxoplasma gondii [5]; [16]): 0%
- inhibition at 5 µg/mL (Toxoplasma gondii [5]; [17]): 96.3%

Structure (SMILES): CCC(C)(NC(=O)c1cc(Cl)c(C)c(Cl)c1)C(=O)CCl (stereo not shown) [Compound 10]
- inhibition at 24 h ([1]; L929, 0.5 μg/ml): 3.7%
- inhibition at 48 h ([1]; L929, 0.5 μg/ml): 0%
- inhibition at 72 h ([1]; L929, 0.5 μg/ml): 2.2%
- inhibition at 24 h ([1]; L929, 5.0 μg/ml): 2.8%
- inhibition at 48 h ([1]; L929, 5.0 μg/ml): 0%
- inhibition at 72 h ([1]; L929, 5.0 μg/ml): 3.5%
- inhibition at 24 h ([1]; L929, 25.0 μg/ml): 2.2%
- inhibition at 48 h ([1]; L929, 25.0 μg/ml): 4.5%
- inhibition at 72 h ([1]; L929, 25.0 μg/ml): 7.6%
- EC50 (Tetrahymena pyriformis; 24 h): 0.004 µg/mL (≈ 0.0119 µM)
- EC50 (Leishmania major): 0.2 µg/mL (≈ 0.594 µM)
- EC50 (Entamoeba histolytica): 6 µg/mL (≈ 17.8 µM)
- inhibition at 24 h ([3]; 0.5 μg/ml): 0%
- inhibition at 48 h ([3]; 0.5 μg/ml): 0%
- inhibition at 72 h ([3]; 0.5 μg/ml): 3%
- inhibition at 24 h ([3]; 5.0 μg/ml): 1.4%
- inhibition at 48 h ([3]; 5.0 μg/ml): 7.6%
- inhibition at 72 h ([3]; 5.0 μg/ml): 3.5%
- inhibition at 24 h ([3]; 25.0 μg/ml): 6.7%
- inhibition at 48 h ([3]; 25.0 μg/ml): 9.3%
- inhibition at 72 h ([3]; 25.0 μg/ml): 4.8%
- EC50 (Giardia lamblia): 0.06 µg/mL (≈ 0.178 µM)
- inhibition at 0.5 µg/mL (Toxoplasma gondii [4]; L929, 24 h): 0%
- inhibition at 5 µg/mL (Toxoplasma gondii [4]; L929, 24 h): 20.5%
- inhibition at 25 µg/mL (Toxoplasma gondii [4]; L929, 24 h): 19.6%
- inhibition at 0.5 µg/mL (Toxoplasma gondii [4]; L929, 48 h): 0%
- inhibition at 5 µg/mL (Toxoplasma gondii [4]; L929, 48 h): 80.5%
- inhibition at 25 µg/mL (Toxoplasma gondii [4]; L929, 48 h): 86.5%
- inhibition at 0.5 µg/mL (Toxoplasma gondii [4]; L929, 72 h): 2.3%
- inhibition at 5 µg/mL (Toxoplasma gondii [4]; L929, 72 h): 90.4%
- inhibition at 25 µg/mL (Toxoplasma gondii [4]; L929, 72 h): 98%
- inhibition at 0.5 µg/mL (Toxoplasma gondii [5]; 24 h): 2.3%
- inhibition at 5 µg/mL (Toxoplasma gondii [5]; 24 h): 8.8%
- inhibition at 25 µg/mL (Toxoplasma gondii [5]; 24 h): 63.4%
- inhibition at 0.5 µg/mL (Toxoplasma gondii [5]; 48 h): 2.1%
- inhibition at 5 µg/mL (Toxoplasma gondii [5]; 48 h): 1.4%
- inhibition at 25 µg/mL (Toxoplasma gondii [5]; 48 h): 95.7%
- inhibition at 0.5 µg/mL (Toxoplasma gondii [5]; 72 h): 6.3%
- inhibition at 5 µg/mL (Toxoplasma gondii [5]; 72 h): 0%
- inhibition at 25 µg/mL (Toxoplasma gondii [5]; 72 h): 97.3%

— patent US6107316A, “Method for treating protozoal infections” (priority 1998, dated 2000)
